In paper PMC9054772 (RSC Advances, 2020):

Biological target: T1, HsPKS1 (Huperzia serrata, UniProt A3E7Z7)
T1 sequence (A3E7Z7 1-399): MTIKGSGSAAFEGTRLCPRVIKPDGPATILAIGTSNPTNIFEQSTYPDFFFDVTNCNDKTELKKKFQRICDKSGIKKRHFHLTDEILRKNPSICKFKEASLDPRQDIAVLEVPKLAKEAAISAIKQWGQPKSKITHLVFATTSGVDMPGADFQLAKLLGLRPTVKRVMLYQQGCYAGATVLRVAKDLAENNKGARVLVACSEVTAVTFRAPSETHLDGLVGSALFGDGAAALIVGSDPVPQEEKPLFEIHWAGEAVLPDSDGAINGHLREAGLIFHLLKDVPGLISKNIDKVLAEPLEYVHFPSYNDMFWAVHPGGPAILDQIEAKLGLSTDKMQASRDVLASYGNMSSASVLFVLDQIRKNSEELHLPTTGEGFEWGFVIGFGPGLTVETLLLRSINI
Assay: product formation by HPLC / LC-MS
Assay type: biochemical
Conditions: with malonyl-CoA

CC(C)(COP(=O)(O)OP(=O)(O)OC[C@H]1O[C@@H](n2cnc3c(N)ncnc32)[C@H](O)[C@@H]1OP(=O)(O)O)[C@@H](O)C(=O)NCCC(=O)NCCSC(=O)Cc1ccccn1 [2-pyridylacetyl-CoA]
product formation by HPLC / LC-MS (library screen): Only two type III PKSs (HsPKS1 and HsPKS3) from H. serrata
